*1 amine or outer side, *2 acyl side, *3 side chain or, on linkers, in order; H or OH if unused. Where a SMILES comes first, the peptide text is derived from it. Bridges are numbered along the chain shown (N, C = ends). Roman numbers before positions name the chains, in order. [ ]: non-standard residue; d: D form. Actinocin(1to9) = Cc1c2oc3c(C)ccc(C(=O)[*:2])c3nc-2c(C(=O)[*:1])c(N)c1=O; NMeV = CN[C@H](C(=O)O)C(C)C; Sar = CNCC(=O)O

One assay deals with Calf thymus DNA. Kind of assay: Binding affinity to calf thymus DNA at 5.2 x 10^-6 M by CD spectra analysis. Type of assay: nucleic-acid assay. To be noted: Bos taurus.
The test system of assay [1] is L1210. Kind of assay: Inhibition of DNA synthesis in mouse L1210 cells by [3H]-thymidine incorporation assay. In kind it is functional. To be noted: read-out: ED50 (the source's name).
Assay [2] relates to L1210. Put plainly: Inhibition of RNA synthesis in mouse L1210 cells by [3H]-uridine incorporation assay. Type of assay: functional. The note with it: read-out: ED50 (the source's name).

Take `Cc1ccc(C(=O)N[C@@H]2C(=O)N[C@H](C(C)C)C(=O)N3CCC[C@H]3C(=O)N(C)CC(=O)N(C)[C@@H](C(C)C)C(=O)O[C@@H]2C)c2nc3c(C(=O)N[C@@H]4C(=O)N[C@H](C(C)C)C(=O)N5CCC[C@H]5C(=O)N(C)CC(=O)N(C)[C@@H](C(C)C)C(=O)O[C@@H]4C)cccc3nc12`: the ΔTm with Calf thymus DNA turned out to be 3.4 °C. The figures for the EC50 in the assay with L1210 [1] and in the assay on L1210 [2] were 9200 nM and 230 nM, respectively.

On to `Cc1c2oc3c(C)ccc(C(=O)N[C@@H]4C(=O)N[C@H](C(C)C)C(=O)N5CCC[C@H]5C(=O)N(C)CC(=O)N(C)[C@@H](C(C)C)C(=O)O[C@@H]4C)c3nc-2c(C(=O)N[C@@H]2C(=O)N[C@H](C(C)C)C(=O)N3CCC[C@H]3C(=O)N(C)CC(=O)N(C)[C@@H](C(C)C)C(=O)O[C@@H]2C)cc1=O`, for which, in the assay on Calf thymus DNA, the ΔTm came out at 9.9 °C. The EC50 in the assay with L1210 [1] was determined as 63000 nM; with L1210 [2] it was 700 nM.

In the case of `Cc1c2oc3c(C)ccc(C(=O)N[C@@H]4C(=O)N[C@H](C(C)C)C(=O)N5CCC[C@H]5C(=O)N(C)CC(=O)N(C)[C@@H](C(C)C)C(=O)O[C@@H]4C)c3nc-2c(C(=O)N[C@@H]2C(=O)N[C@H](C(C)C)C(=O)N3CCC[C@H]3C(=O)N(C)CC(=O)N(C)[C@@H](C(C)C)C(=O)O[C@@H]2C)c(N)c1=O` [DACTINOMYCIN] (I: T[dV]P[Sar][NMeV] / II: T[dV]P[Sar][NMeV]; ester I:1-I:C, II:1-II:C; linker I:N-II:N via Actinocin(1to9)), the ΔTm in the assay with Calf thymus DNA was determined as 7.1 °C. The EC50 in the assay on L1210 [1] amounted to 600 nM; with L1210 [2], 15 nM.

These data come from ChEMBL document CHEMBL3244413, “A phenazine analogue of actinomycin D” (1979).
